According to ChEMBL document CHEMBL3862024, “2-Phenylbenzo[b]furans: Synthesis and promoting activity on estrogen biosynthesis” (Bioorg Med Chem Lett, 2016):

How the values were obtained:
[1] = Induction of estrogen biosynthesis in aromatase overexpressing HEK293A cells assessed as increase in 17beta-estradiol levels at 50 uM preincubated for 24 hrs followed by testosterone addition measured after 24 hrs by magnetic particle-based ELISA relative to egonol gentiobioside; assay type: functional, Homo sapiens, HEK293-A
[2] = Cytotoxicity against aromatase overexpressing HEK293A cells assessed as effect on cell proliferation at 10 to 50 uM; assay type: toxicity, cell-based; settings: human, hek293-a
[3] = Induction of estrogen biosynthesis in aromatase overexpressing HEK293A cells assessed as increase in 17beta-estradiol levels preincubated for 24 hrs followed by testosterone addition measured after 24 hrs by magnetic particle-based ELISA; assay type: functional, cell-based; settings: Homo sapiens, HEK293-A

| EC50 [3] [µM] | Compound | fold change (FC) [1] | Activity [2] |
| --- | --- | --- | --- |
| 19.4 | COc1ccc(OC)c(-c2cc3cc(SC)cc(OC)c3o2)c1 | >0.6 | Non-Toxic |
| 20.9 | COc1ccc(-c2cc3cc(Br)cc(OC)c3o2)cc1 | >0.6 | Non-Toxic |
| – | COc1ccc(-c2cc3cc(Cl)ccc3o2)cc1OC | – | Non-Toxic |
| 15.7 | COc1cc(CCCO[C@@H]2O[C@H](CO[C@@H]3O[C@H](CO)[C@@H](O)[C@H](O)[C@H]3O)[C@@H](O)[C@H](O)[C@H]2O)cc2cc(-c3ccc4c(c3)OCO4)oc12 | – | – |
| – | Clc1cc(Cl)c2oc(-c3ccccc3)cc2c1 | – | Non-Toxic |
| 19.6 | COc1cccc(-c2cc3cc(Cl)cc(Cl)c3o2)c1 | >0.6 | Non-Toxic |
| – | COc1cc(Cl)cc2cc(-c3ccccc3)oc12 | – | Non-Toxic |
| 14.7 | COc1cccc2cc(-c3ccc(Cl)cc3)oc12 | >0.6 | Non-Toxic |
| – | COc1ccc(-c2cc3ccccc3o2)cc1OC | – | Non-Toxic |
| 30.9 | COc1cc(Br)cc2cc(-c3ccc([N+](=O)[O-])cc3)oc12 | >0.6 | Non-Toxic |
| 24.9 | Fc1ccc(-c2cc3ccccc3o2)cc1 | >0.6 | Non-Toxic |
| – | Clc1ccc(-c2cc3cc(Cl)ccc3o2)cc1 | – | Non-Toxic |
| 15.5 | c1ccc(-c2cc3ccccc3o2)cc1 | >0.6 | Non-Toxic |
| – | COc1cccc2cc(-c3ccc4c(c3)OCO4)oc12 | >0.6 | Non-Toxic |
| – | COc1cc(CCCI)cc2cc(-c3ccc4c(c3)OCO4)oc12 | – | Non-Toxic |
| – | COc1ccc(-c2cc3cc(Br)cc(OC)c3o2)cc1OC | – | Non-Toxic |
| 29.4 | COc1cc(-c2cc3cc(Cl)ccc3o2)cc(OC)c1OC | >0.6 | Non-Toxic |
| – | COc1cccc2cc(-c3ccc(F)cc3)oc12 | – | Non-Toxic |
| – | COc1cc(CCCOC(C)=O)cc2cc(-c3ccc4c(c3)OCO4)oc12 [EGONOL ACETATE] | – | Non-Toxic |
| 25.5 | COc1ccc(-c2cc3cc(Br)cc(OC)c3o2)cc1O | >0.6 | Non-Toxic |
| – | COc1cc(Cl)cc2cc(-c3ccc(Cl)cc3)oc12 | – | Non-Toxic |
| – | COc1ccccc1-c1cc2cc(Cl)cc(Cl)c2o1 | – | Non-Toxic |
| – | COc1ccc(-c2cc3cccc(OC)c3o2)cc1 | – | Non-Toxic |
| – | COc1ccc(-c2cc3cc(Cl)cc(Cl)c3o2)cc1OC | – | Non-Toxic |
| – | COc1ccccc1-c1cc2cc(Cl)ccc2o1 | – | Non-Toxic |
| – | COc1cc(CCC=O)cc2cc(-c3ccc4c(c3)OCO4)oc12 | – | Non-Toxic |
| – | c1ccc2oc(-c3ccc4c(c3)OCO4)cc2c1 | – | Non-Toxic |
| – | CCCC(=O)OCCCc1cc(OC)c2oc(-c3ccc4c(c3)OCO4)cc2c1 [EGONOLBUTANOATE] | – | Non-Toxic |

| EC50 [3] [µM] | Compound | fold change (FC) [1] | Activity [2] |
| --- | --- | --- | --- |
| – | COc1cc(CCCO)c(Br)c2c(Br)c(-c3ccc4c(c3)OCO4)oc12 | – | Non-Toxic |
| – | O=[N+]([O-])c1ccc(-c2cc3cc(Cl)ccc3o2)cc1 | – | Non-Toxic |
| – | COc1cc(CCCBr)cc2cc(-c3ccc4c(c3)OCO4)oc12 | – | Non-Toxic |
| – | COc1cccc2cc(-c3ccccc3)oc12 | – | Non-Toxic |
| – | COc1cc(-c2cc3cc(Br)cc(OC)c3o2)ccc1O | – | Non-Toxic |
| – | COc1c(Br)c(CCCO)c(Br)c2c(Br)c(-c3ccc4c(c3)OCO4)oc12 | – | Non-Toxic |
| – | COc1cc(Br)cc2cc(-c3ccc4c(c3)OCO4)oc12 | – | Non-Toxic |
| – | COc1cccc2cc(-c3ccc([N+](=O)[O-])cc3)oc12 | – | Non-Toxic |
| – | COc1cc(CCCCl)cc2cc(-c3ccc4c(c3)OCO4)oc12 | >0.6 | Non-Toxic |
| – | COc1ccc(-c2cc3cc(Cl)cc(Cl)c3o2)cc1 | – | Non-Toxic |
| – | COc1cccc(-c2cc3cc(Br)cc(OC)c3o2)c1 | >0.6 | Non-Toxic |
| – | C=CC(=O)OCCCc1cc(OC)c2oc(-c3ccc4c(c3)OCO4)cc2c1 | – | Non-Toxic |
| 20.1 | COc1cc(Cl)cc2cc(-c3ccc(F)cc3)oc12 | >0.6 | Non-Toxic |
| – | COc1ccc(-c2cc3cc(Cl)ccc3o2)cc1 | – | Non-Toxic |
| 20.8 | COc1cccc(-c2cc3ccccc3o2)c1 | >0.6 | Non-Toxic |
| – | COc1cc(SC)cc2cc(-c3ccc(Cl)cc3)oc12 | – | Non-Toxic |
| – | COc1cc(CCCOC(C)=O)cc2c(C=O)c(-c3ccc4c(c3)OCO4)oc12 | – | Non-Toxic |
| 17.2 | Clc1ccc2oc(-c3ccc(OCc4ccccc4)cc3)cc2c1 | >0.6 | Non-Toxic |
| – | COc1cc(CCCO)cc2cc(-c3ccc4c(c3)OCO4)oc12 [EGONOL] | – | Non-Toxic |
| – | COc1cc(CCCOC(=O)c2ccccc2)cc2cc(-c3ccc4c(c3)OCO4)oc12 | >0.6 | Non-Toxic |
| – | COc1ccc(-c2cc3cccc(OC)c3o2)cc1OC | – | Non-Toxic |
| – | COc1cc(SC)cc2cc(-c3ccc(F)cc3)oc12 | – | Non-Toxic |
| 22.1 | COc1cc(CCCO)c(Br)c2cc(-c3ccc4c(c3)OCO4)oc12 | >0.6 | Non-Toxic |
| – | COc1ccc(-c2cc3ccccc3o2)cc1 | – | Non-Toxic |
| – | COc1cc(CCCOC(C)=O)c(C=O)c2cc(-c3ccc4c(c3)OCO4)oc12 | – | Non-Toxic |
| – | COc1cccc(-c2cc3cccc(OC)c3o2)c1 | – | Non-Toxic |
| – | O=[N+]([O-])c1ccc(-c2cc3cc(Cl)cc(Cl)c3o2)cc1 | – | Non-Toxic |
